Columns and labels:
Test in all cases: Differential Scanning Fluorimetry (DSF) Tm shift
Assay type in all cases: binding
AKT3 Catalytic Domain = biological target: T1, AKT3 Catalytic Domain (Homo sapiens, UniProt Q9Y243); settings: 2 µM protein, 10 µM inhibitor, average of 3 experiments, each in duplicate
T1 construct: AKT3 (Q9Y243); CD; His-tag; made in house; host or cells: Escherichia coli

CDK2 + Cyclin A = biological target: T2, CDK2 + Cyclin A (Homo sapiens, UniProt P24941); settings: CDK2 + Cyclin A; 2 µM protein, 10 µM inhibitor; average of 3 experiments, each in duplicate
T2 construct: CDK2 (P24941); 1–299; His-tag; made in house; host or cells: Escherichia coli

CDK2 + Cyclin E = biological target: T3, CDK2 + Cyclin E (Homo sapiens, UniProt P24941); settings: CDK2 + Cyclin E; 2 µM protein, 10 µM inhibitor; average of 3 experiments, each in duplicate
T3 construct: CDK2 (P24941); 1–299; His-tag; made in house; host or cells: Escherichia coli

CHK2 Catalytic Domain = biological target: T4, CHK2 Catalytic Domain (Homo sapiens, UniProt O96017); settings: 2 µM protein, 10 µM inhibitor, average of 3 experiments, each in duplicate
T4 construct: For all of them, we expressed and purified the catalytic domain separately; His-tag; made in house; host or cells: Escherichia coli
T4 sequence (O96017 220-486 limits assumed): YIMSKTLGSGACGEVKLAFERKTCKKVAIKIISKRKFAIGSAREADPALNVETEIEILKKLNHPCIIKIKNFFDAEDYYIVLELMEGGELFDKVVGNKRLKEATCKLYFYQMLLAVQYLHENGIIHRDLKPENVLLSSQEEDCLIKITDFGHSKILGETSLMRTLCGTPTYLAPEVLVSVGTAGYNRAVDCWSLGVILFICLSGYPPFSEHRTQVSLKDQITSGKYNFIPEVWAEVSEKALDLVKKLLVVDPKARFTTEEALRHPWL

DMPK Catalytic Domain = biological target: T5, DMPK Catalytic Domain (Homo sapiens, UniProt Q09013); settings: 2 µM protein, 10 µM inhibitor, average of 3 experiments, each in duplicate
T5 construct: For all of them, we expressed and purified the catalytic domain separately; His-tag; made in house; host or cells: Escherichia coli
T5 sequence (Q09013 71-339 limits assumed): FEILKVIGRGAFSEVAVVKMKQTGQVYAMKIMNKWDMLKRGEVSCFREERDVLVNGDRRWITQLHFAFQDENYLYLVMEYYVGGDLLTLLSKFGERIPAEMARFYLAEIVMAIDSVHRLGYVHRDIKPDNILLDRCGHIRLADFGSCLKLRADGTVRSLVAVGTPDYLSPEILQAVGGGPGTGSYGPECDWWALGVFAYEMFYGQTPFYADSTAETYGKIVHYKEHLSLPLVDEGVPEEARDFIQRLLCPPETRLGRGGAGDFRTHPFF

FAK2 Catalytic Domain = biological target: T6, FAK2 Catalytic Domain (Homo sapiens, UniProt Q14289); settings: 2 µM protein, 10 µM inhibitor, average of 3 experiments, each in duplicate
T6 construct: For all of them, we expressed and purified the catalytic domain separately; His-tag; made in house; host or cells: Escherichia coli
T6 sequence (Q14289 425-683 limits assumed): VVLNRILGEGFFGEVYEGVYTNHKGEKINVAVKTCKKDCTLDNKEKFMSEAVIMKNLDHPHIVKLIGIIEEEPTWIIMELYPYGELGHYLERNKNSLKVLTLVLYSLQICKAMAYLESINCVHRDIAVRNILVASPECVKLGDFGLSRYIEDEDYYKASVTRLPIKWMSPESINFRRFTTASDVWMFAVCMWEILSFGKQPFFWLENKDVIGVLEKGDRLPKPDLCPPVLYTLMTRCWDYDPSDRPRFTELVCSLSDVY

FES Catalytic Domain+SH2 = biological target: T7, FES Catalytic Domain+SH2 (Homo sapiens, UniProt P07332); settings: 2 µM protein, 10 µM inhibitor, average of 3 experiments, each in duplicate
T7 construct: for 8, we also made a longer version containing one or more additional domains; His-tag; made in house; host or cells: Escherichia coli
T7 sequence (P07332 448-822 limits assumed): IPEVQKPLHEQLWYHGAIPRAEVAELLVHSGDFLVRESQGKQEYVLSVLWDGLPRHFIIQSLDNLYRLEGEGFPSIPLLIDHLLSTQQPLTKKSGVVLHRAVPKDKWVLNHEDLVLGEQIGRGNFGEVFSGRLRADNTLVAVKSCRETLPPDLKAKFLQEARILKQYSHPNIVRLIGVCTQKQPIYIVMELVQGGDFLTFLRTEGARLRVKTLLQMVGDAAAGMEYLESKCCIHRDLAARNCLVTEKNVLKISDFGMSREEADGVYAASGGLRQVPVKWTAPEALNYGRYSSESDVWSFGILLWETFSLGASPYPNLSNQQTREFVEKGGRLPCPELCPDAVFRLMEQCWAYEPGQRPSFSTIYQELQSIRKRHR

FES Catalytic Domain = biological target: T8, FES Catalytic Domain (Homo sapiens, UniProt P07332); settings: 2 µM protein, 10 µM inhibitor, average of 3 experiments, each in duplicate
T8 construct: For all of them, we expressed and purified the catalytic domain separately; His-tag; made in house; host or cells: Escherichia coli
T8 sequence (P07332 561-822 limits assumed): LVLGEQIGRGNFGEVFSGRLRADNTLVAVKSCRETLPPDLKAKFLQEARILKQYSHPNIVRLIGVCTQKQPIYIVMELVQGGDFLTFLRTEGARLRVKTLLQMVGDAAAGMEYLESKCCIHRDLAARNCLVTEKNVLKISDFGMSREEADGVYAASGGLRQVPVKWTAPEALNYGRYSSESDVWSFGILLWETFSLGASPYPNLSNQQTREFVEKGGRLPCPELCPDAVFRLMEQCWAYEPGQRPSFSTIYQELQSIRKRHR

[1] = biological target: T9, PAK4 Catalytic Domain+PBD (Homo sapiens, UniProt O96013); settings: 2 µM protein, 10 µM inhibitor, average of 3 experiments, each in duplicate
T9 construct: for 8, we also made a longer version containing one or more additional domains; His-tag; made in house; host or cells: Escherichia coli
T9 sequence (O96013 whole entry, the tested form may be a part): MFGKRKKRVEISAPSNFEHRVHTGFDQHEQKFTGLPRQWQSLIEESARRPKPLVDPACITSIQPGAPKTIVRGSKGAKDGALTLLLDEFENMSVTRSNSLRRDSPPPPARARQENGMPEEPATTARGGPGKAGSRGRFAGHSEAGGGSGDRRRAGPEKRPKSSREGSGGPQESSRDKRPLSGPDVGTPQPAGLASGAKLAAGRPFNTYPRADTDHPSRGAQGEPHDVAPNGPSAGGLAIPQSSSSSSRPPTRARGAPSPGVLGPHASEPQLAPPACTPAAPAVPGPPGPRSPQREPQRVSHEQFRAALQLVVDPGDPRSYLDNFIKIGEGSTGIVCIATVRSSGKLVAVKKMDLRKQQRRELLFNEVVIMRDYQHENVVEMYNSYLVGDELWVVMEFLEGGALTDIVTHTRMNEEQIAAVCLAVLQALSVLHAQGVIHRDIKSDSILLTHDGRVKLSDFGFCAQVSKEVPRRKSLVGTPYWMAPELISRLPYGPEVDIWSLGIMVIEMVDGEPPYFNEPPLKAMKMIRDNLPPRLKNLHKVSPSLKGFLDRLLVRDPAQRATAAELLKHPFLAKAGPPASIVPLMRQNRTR

PAK4 Catalytic Domain = biological target: T10, PAK4 Catalytic Domain (Homo sapiens, UniProt O96013); settings: 2 µM protein, 10 µM inhibitor, average of 3 experiments, each in duplicate
T10 construct: For all of them, we expressed and purified the catalytic domain separately; His-tag; made in house; host or cells: Escherichia coli
T10 sequence (O96013 321-572 limits assumed): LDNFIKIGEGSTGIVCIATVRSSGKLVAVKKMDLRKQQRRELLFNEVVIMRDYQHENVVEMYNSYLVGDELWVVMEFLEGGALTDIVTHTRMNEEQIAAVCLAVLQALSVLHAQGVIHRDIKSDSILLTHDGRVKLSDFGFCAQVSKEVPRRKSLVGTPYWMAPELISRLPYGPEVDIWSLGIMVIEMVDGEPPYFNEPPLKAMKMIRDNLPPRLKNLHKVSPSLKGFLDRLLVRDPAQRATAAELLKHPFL

PAK7 Catalytic Domain = biological target: T11, PAK7 Catalytic Domain (Homo sapiens, UniProt Q9P286); settings: 2 µM protein, 10 µM inhibitor, average of 3 experiments, each in duplicate
T11 construct: For all of them, we expressed and purified the catalytic domain separately; His-tag; made in house; host or cells: Escherichia coli
T11 sequence (Q9P286 449-700 limits assumed): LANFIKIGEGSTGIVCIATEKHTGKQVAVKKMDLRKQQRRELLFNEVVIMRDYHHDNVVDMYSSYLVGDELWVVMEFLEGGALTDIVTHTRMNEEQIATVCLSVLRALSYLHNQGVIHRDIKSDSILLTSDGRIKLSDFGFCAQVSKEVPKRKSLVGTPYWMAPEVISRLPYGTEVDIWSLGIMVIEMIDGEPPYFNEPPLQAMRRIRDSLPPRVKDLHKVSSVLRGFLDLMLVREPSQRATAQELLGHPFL

[2] = biological target: SRC Catalytic Domain+SH2+SH3 (Homo sapiens, UniProt P12931); settings: 2 µM protein, 10 µM inhibitor, average of 3 experiments, each in duplicate
SRC Catalytic Domain+SH2+SH3, sequence (P12931 84-523 limits assumed): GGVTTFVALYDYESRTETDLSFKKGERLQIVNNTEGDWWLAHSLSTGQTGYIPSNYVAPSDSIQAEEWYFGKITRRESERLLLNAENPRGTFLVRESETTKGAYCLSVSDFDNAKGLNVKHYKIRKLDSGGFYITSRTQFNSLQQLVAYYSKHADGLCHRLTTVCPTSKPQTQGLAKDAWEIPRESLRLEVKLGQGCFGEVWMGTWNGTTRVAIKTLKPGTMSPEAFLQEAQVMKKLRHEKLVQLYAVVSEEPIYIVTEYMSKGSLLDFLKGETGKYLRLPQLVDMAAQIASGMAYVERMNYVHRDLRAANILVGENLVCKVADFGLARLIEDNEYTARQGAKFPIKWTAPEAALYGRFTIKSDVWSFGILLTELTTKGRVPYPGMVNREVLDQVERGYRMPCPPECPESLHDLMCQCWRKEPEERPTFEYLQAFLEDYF

[3] = biological target: T12, STK3 Catalytic domain+SARAH (Homo sapiens, UniProt Q13188); settings: 2 µM protein, 10 µM inhibitor, average of 3 experiments, each in duplicate
T12 construct: for 8, we also made a longer version containing one or more additional domains; His-tag; made in house; host or cells: Escherichia coli
T12 sequence (Q13188 1-491): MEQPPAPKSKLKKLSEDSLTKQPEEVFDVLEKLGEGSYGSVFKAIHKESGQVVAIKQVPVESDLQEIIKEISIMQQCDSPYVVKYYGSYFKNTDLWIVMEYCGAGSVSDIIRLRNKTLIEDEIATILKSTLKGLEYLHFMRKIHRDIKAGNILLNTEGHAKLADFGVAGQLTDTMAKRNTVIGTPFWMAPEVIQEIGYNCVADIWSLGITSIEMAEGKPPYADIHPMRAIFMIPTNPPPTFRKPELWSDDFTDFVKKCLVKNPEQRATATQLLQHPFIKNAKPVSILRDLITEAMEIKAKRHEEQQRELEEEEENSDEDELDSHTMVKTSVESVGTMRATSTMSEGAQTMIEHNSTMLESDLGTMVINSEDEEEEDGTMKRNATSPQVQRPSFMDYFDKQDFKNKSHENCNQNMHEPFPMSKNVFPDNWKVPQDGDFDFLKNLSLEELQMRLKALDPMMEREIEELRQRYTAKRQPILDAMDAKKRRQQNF

STK3 Catalytic Domain = biological target: T13, STK3 Catalytic Domain (Homo sapiens, UniProt Q13188); settings: 2 µM protein, 10 µM inhibitor, average of 3 experiments, each in duplicate
T13 construct: For all of them, we expressed and purified the catalytic domain separately; His-tag; made in house; host or cells: Escherichia coli
T13 sequence (Q13188 27-278 limits assumed): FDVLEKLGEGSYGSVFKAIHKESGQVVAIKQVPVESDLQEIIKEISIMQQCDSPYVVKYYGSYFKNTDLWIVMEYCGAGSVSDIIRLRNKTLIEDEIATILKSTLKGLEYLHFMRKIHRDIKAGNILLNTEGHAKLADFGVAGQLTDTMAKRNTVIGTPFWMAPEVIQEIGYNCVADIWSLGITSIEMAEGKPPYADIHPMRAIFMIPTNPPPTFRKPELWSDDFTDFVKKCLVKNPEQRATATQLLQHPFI

SRC Catalytic Domain = SRC Catalytic Domain (Homo sapiens, UniProt P12931); parameters: For all of them, we expressed and purified the catalytic domain separately; His-tag; made in house; host or cells: Escherichia coli; settings: 2 µM protein, 10 µM inhibitor, average of 3 experiments, each in duplicate
SRC Catalytic Domain, sequence (P12931 270-523 limits assumed): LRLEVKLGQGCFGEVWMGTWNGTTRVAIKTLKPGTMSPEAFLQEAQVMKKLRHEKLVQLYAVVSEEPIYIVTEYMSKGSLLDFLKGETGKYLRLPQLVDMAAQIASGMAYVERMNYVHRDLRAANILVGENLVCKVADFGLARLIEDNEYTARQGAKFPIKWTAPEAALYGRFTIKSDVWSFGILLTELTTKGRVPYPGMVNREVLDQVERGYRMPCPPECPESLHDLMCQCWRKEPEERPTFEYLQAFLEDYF

T1 sequence (Q9Y243 122-479): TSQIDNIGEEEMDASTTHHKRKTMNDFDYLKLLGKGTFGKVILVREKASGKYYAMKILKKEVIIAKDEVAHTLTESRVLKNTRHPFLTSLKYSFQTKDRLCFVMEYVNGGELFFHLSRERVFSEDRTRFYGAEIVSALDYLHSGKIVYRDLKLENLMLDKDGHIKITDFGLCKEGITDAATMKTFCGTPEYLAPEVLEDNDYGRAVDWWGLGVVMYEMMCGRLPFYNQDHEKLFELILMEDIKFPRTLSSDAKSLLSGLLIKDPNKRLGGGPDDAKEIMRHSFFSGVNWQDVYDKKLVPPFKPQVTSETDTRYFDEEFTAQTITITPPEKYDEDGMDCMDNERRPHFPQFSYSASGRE

Row | SMILES | Melting temperature (Tm) shift (AKT3 Catalytic Domain) | Melting temperature (Tm) shift (CDK2 + Cyclin A) | Melting temperature (Tm) shift (CDK2 + Cyclin E) | Melting temperature (Tm) shift (CHK2 Catalytic Domain) | Melting temperature (Tm) shift (DMPK Catalytic Domain) | Melting temperature (Tm) shift (FAK2 Catalytic Domain) | Melting temperature (Tm) shift (FES Catalytic Domain+SH2) | Melting temperature (Tm) shift (FES Catalytic Domain) | Melting temperature (Tm) shift [1] | Melting temperature (Tm) shift (PAK4 Catalytic Domain) | Melting temperature (Tm) shift (PAK7 Catalytic Domain) | Melting temperature (Tm) shift [2] | Melting temperature (Tm) shift [3] | Melting temperature (Tm) shift (STK3 Catalytic Domain) | Melting temperature (Tm) shift (SRC Catalytic Domain)
1 | c1cc(-c2cnn3cc(-c4ccc(OCCN5CCCCC5)cc4)cnc23)ccn1 [AMPK Inhibitor, Compound C] | 0.3 degrees Celcius | 1.0 degrees Celcius | 0.5 degrees Celcius | 1.1 degrees Celcius | 1.5 degrees Celcius | 0.1 degrees Celcius | 0.4 degrees Celcius | 1.2 degrees Celcius | 0.8 degrees Celcius | 0.7 degrees Celcius | 0.5 degrees Celcius | 0.6 degrees Celcius | 0.4 degrees Celcius | 0.3 degrees Celcius | 0.5 degrees Celcius
2 | CCCCc1c(-c2ccc(O)cc2)[nH]c2nccnc12 [Aloisine A, RP107, Aloisine A] | 0.1 degrees Celcius | 2.5 degrees Celcius | 1.4 degrees Celcius | 2.7 degrees Celcius | 1.4 degrees Celcius | 1.2 degrees Celcius | 0.5 degrees Celcius | 0.9 degrees Celcius | 1.3 degrees Celcius | 1.3 degrees Celcius | 1.2 degrees Celcius | 1.1 degrees Celcius | 1.4 degrees Celcius | 1.6 degrees Celcius | 1.5 degrees Celcius
3 | N#CCCc1ccc2c(c1)-c1[nH]c3ccc([N+](=O)[O-])cc3c1CC(=O)N2 [Alsterpaullone, 2-Cyanoethyl] | 0.1 degrees Celcius | 0.5 degrees Celcius | 0.5 degrees Celcius | 1.9 degrees Celcius | 3.4 degrees Celcius | 0.6 degrees Celcius | 0.3 degrees Celcius | 1.3 degrees Celcius | 0.3 degrees Celcius | 0.9 degrees Celcius | 1.3 degrees Celcius | 0.3 degrees Celcius | 1.5 degrees Celcius | 1.7 degrees Celcius | 0.2 degrees Celcius
4 | CN(C)CCCn1cc(C2=C(c3c[nH]c4ccccc34)C(=O)NC2=O)c2ccccc21 [Bisindolylmaleimide I] | 0.4 degrees Celcius | 1.8 degrees Celcius | 0.9 degrees Celcius | 4.6 degrees Celcius | 3.9 degrees Celcius | 0.5 degrees Celcius | 0.6 degrees Celcius | 0.6 degrees Celcius | 0.6 degrees Celcius | 1.0 degrees Celcius | 0.6 degrees Celcius | 0.0 degrees Celcius | 2.9 degrees Celcius | 1.0 degrees Celcius | 0.4 degrees Celcius
5 | CCn1cnc2c(Nc3cccc(Cl)c3)nc(N[C@H]3CCCC[C@H]3N)nc21 [Cdk1 Inhibitor, CGP74514A] | 0.0 degrees Celcius | 4.4 degrees Celcius | 3.7 degrees Celcius | 1.8 degrees Celcius | 1.4 degrees Celcius | 1.9 degrees Celcius | 0.7 degrees Celcius | 1.6 degrees Celcius | 8.1 degrees Celcius | 5.6 degrees Celcius | 5.4 degrees Celcius | 1.3 degrees Celcius | 1.2 degrees Celcius | 1.3 degrees Celcius | 1.2 degrees Celcius

Results, then the compound that gave them:

Row | Melting temperature (Tm) shift (AKT3 Catalytic Domain) | Melting temperature (Tm) shift (CDK2 + Cyclin A) | Melting temperature (Tm) shift (CDK2 + Cyclin E) | Melting temperature (Tm) shift (CHK2 Catalytic Domain) | Melting temperature (Tm) shift (DMPK Catalytic Domain) | Melting temperature (Tm) shift (FAK2 Catalytic Domain) | Melting temperature (Tm) shift (FES Catalytic Domain+SH2) | Melting temperature (Tm) shift (FES Catalytic Domain) | Melting temperature (Tm) shift [1] | Melting temperature (Tm) shift (PAK4 Catalytic Domain) | Melting temperature (Tm) shift (PAK7 Catalytic Domain) | Melting temperature (Tm) shift [2] | Melting temperature (Tm) shift [3] | Melting temperature (Tm) shift (STK3 Catalytic Domain) | Melting temperature (Tm) shift (SRC Catalytic Domain) | SMILES
6 | 0.1 degrees Celcius | 0.4 degrees Celcius | 0.2 degrees Celcius | 0.9 degrees Celcius | 1.8 degrees Celcius | 0.4 degrees Celcius | 0.1 degrees Celcius | 0.3 degrees Celcius | 0.3 degrees Celcius | 0.2 degrees Celcius | 0.3 degrees Celcius | 0.2 degrees Celcius | 0.7 degrees Celcius | 0.3 degrees Celcius | 0.0 degrees Celcius | O=C1Cc2c([nH]c3ccc([N+](=O)[O-])cc23)-c2ccccc2N1 [Alsterpaullone]
7 | 0.0 degrees Celcius | 0.9 degrees Celcius | 0.7 degrees Celcius | 4.1 degrees Celcius | 2.7 degrees Celcius | 0.1 degrees Celcius | 0.9 degrees Celcius | 0.5 degrees Celcius | 0.0 degrees Celcius | 0.4 degrees Celcius | 0.1 degrees Celcius | 0.0 degrees Celcius | 2.0 degrees Celcius | 0.9 degrees Celcius | 0.3 degrees Celcius | O=C1NC(=O)C(c2c[nH]c3ccccc23)=C1c1c[nH]c2ccccc12 [Bisindolylmaleimide IV]

Reference: article PMC4051630, “A Comparison of Protein Kinases Inhibitor Screening Methods Using Both Enzymatic Activity and Binding Affinity Determination” (PLoS ONE, 2014)
